In patent publication US4650868A, “7-deazapurine derivatives useful as antitumor agents” (Takeda Chemical Industries, Ltd., priority 1984, dated 1987):
Converted amounts (≈) assume the structure as drawn.

Key:
[1] = test system: rat liver tRNA-guanine transglycosylase; experiment: Uptake of the compound into [3H]guanine-labeled tRNA; type: biochemical; settings: 0.02 OD260 of compound, 37° C., 17 hours, [3H]guanine labeled tRNA (8000 cpm)
Method: [^3 H] guanine labeled tRNA*) (8000 cpm), 70 mM of […], 60 mM of magnesium chloride, 0.5 unit of rat liver tRNA-guanine transglycosylase and 0.02 OD260 of the compound obtained in Example 1 to be described hereinafter were prepared to the total volume of 100 μl, and the reaction was allowed to proceed at 37° C. for 17 hours. The reaction solution was applied to a Whatman 3 MM filter paper (produced by Whatman Co., U.S.A.), which was washed three times with a 5% aqueous solution of trichloroacetic acid and once successively with ethanol/ether (1:1) and ether alone.
(*) tRNA with the first letter of its anticodon labeled with [^3 H]-guanine.

L5178Y mouse tumor cells = experiment: Growth inhibition of cultured L5178Y cells; type: cell-based; settings: 72 hours incubation with drug, cell count, non-treated control = 100%, read-out: IC50 (50% growth inhibitory concentration)
Method: 1×10^4 L5178Y mouse tumor cells were suspended in 2 ml of a RPMI-1640 medium (produced by Nissui Pharmaceutical Co. of Japan) containing 10% of bovine fetal serum, 20 μM of 2-mercaptoethanol and 100 μg/ml of Kanamycin, and incubated at 37° C. for 24 hours before addition of the drug. Using the above culture fluid as a diluent, the compound as obtained in Example 3 to be described hereinafter was diluted 1/4-fold in a series of 5 stages and added to the culture medium in such a manner that the maximum concentration of the compound might be 200 μg/ml. The dilutions were further incubated for 72 hours, at the end of which time the cells were counted with use of a counter and the IC50 (50% growth inhibitory concentration) was calculated with the count for the non-treated control group being taken as 100%. The IC50 value was 2.0 μg/ml.

Meth A tumor cells = experiment: Meth A tumor subcutaneously transplanted into BALB/c mouse; type: in vivo; settings: 100 mg/kg intraperitoneally once a day for 14 consecutive days from day 4; tumor weight on 35th day after transplantation
Method: 5×10^4 Meth A tumor cells were subcutaneously transplanted into a BALB/c mouse weighing 20 g, and starting with the fourth day after transplantation, a solution of the compound as obtained in Example 3 to be described hereinafter in 0.1 ml of distilled water prepared in such a way that a dose might be 100 mg/kg was intraperitoneally injected into the mouse once a day for 14 consecutive days. On the 35th day after transplantation, the tumor node was enucleated and its weight (T) was measured.

SMILES	uptake of the test compound into tRNA [1]	IC50 (L5178Y mouse tumor cells)	tumor inhibition rate (T/C) (Meth A tumor cells)
COc1ccccc1NCc1c[nH]c2nc(N)[nH]c(=O)c12 [Example 1, 2-amino-5-(2-methoxyphenylaminomethyl)pyrrolo[2,3-d]pyrimidin-4-one]	120%	–	–
COc1cc(NCc2c[nH]c3nc(N)[nH]c(=O)c23)cc(OC)c1OC [Example 2 (2), 2-Amino-5-(3,4,5-trimethoxyphenylaminomethyl)pyrrolo[2,3-d]pyrimidin 4-one]	140%	–	–
Nc1ccc(NCc2c[nH]c3nc(N)[nH]c(=O)c23)cc1 [Example 3, 2-amino-5-(4-aminophenylaminomethyl)pyrrolo[2,3-d]pyrimidin-4-one]	–	2 µg/mL (≈ 7.4 µM)	36%
